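96-well plates; 48 h exposure; 5 concentrations. Endpoints by linear interpolation between flanking doses. Not reached: highest tested concentration assigned. GI50 = concentration required for 50% inhibition of growth. TGI marks complete inhibition of growth.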
Experiments:
Test in all cases: DTP human tumour cell line panel, 48 h
UACC-62 melanoma = test system: UACC-62 melanoma
M14 melanoma = test system: M14 melanoma
EKVX NSCLC = test system: EKVX NSCLC
MDA-MB-435 = test system: MDA-MB-435
SW-620 colon = test system: SW-620 colon
OVCAR-8 ovarian = test system: OVCAR-8 ovarian
ACHN renal = test system: ACHN renal
HOP-92 NSCLC = test system: HOP-92 NSCLC
A549 NSCLC = test system: A549 NSCLC
HCT-116 colon = test system: HCT-116 colon
SN12C renal = test system: SN12C renal
CAKI-1 renal = test system: CAKI-1 renal
K-562 leukemia = test system: K-562 leukemia
MALME-3M melanoma = test system: MALME-3M melanoma
DU-145 prostate = test system: DU-145 prostate
NCI-H522 lung = test system: NCI-H522 lung
MCF7 breast = test system: MCF7 breast
RPMI-8226 leukemia = test system: RPMI-8226 leukemia
SNB-19 CNS = test system: SNB-19 CNS
SK-MEL-28 melanoma = test system: SK-MEL-28 melanoma
NCI-H226 lung = test system: NCI-H226 lung
PC-3 prostate = test system: PC-3 prostate
SK-MEL-2 melanoma = test system: SK-MEL-2 melanoma
SK-OV-3 ovarian = test system: SK-OV-3 ovarian
786-0 renal = test system: 786-0 renal
T-47D breast = test system: T-47D breast
SF-539 CNS = test system: SF-539 CNS
UACC-257 melanoma = test system: UACC-257 melanoma
IGROV1 ovarian = test system: IGROV1 ovarian
MOLT-4 leukemia = test system: MOLT-4 leukemia
U251 CNS = test system: U251 CNS
SF-268 CNS = test system: SF-268 CNS
HCC-2998 colon = test system: HCC-2998 colon
NCI/ADR-RES ovarian = test system: NCI/ADR-RES ovarian
TK-10 renal = test system: TK-10 renal
SK-MEL-5 melanoma = test system: SK-MEL-5 melanoma
NCI-H460 lung = test system: NCI-H460 lung
HCT-15 colon = test system: HCT-15 colon
HS 578T breast = test system: HS 578T breast
OVCAR-4 ovarian = test system: OVCAR-4 ovarian
HOP-62 NSCLC = test system: HOP-62 NSCLC
A498 renal = test system: A498 renal
NCI-H23 lung = test system: NCI-H23 lung
BT-549 breast = test system: BT-549 breast
UO-31 renal = test system: UO-31 renal
HT29 colon = test system: HT29 colon
MDA-MB-231 breast = test system: MDA-MB-231 breast
CCRF-CEM leukemia = test system: CCRF-CEM leukemia
COLO 205 colon = test system: COLO 205 colon
SNB-75 CNS = test system: SNB-75 CNS
OVCAR-5 ovarian = test system: OVCAR-5 ovarian
SF-295 CNS = test system: SF-295 CNS

**Q.** For `COc1ccc2nc(-c3ccccc3)cc(Nc3cccc(C(C)=O)c3)c2c1`, which GI50 (UACC-62 melanoma) is on record?
**A.** 15.4 µM

**Q.** What about the TGI (UACC-62 melanoma) of the same molecule?
**A.** 31.4 µM

**Q.** What about the GI50 (M14 melanoma) of the same molecule?
**A.** 5.11 µM

**Q.** And the TGI (M14 melanoma)?
**A.** 20.2 µM

**Q.** And the GI50 (EKVX NSCLC)?
**A.** 13.6 µM

**Q.** What about the TGI (EKVX NSCLC) of the same molecule?
**A.** 34.3 µM

**Q.** What about the GI50 (MDA-MB-435) of the same molecule?
**A.** 4.51 µM

**Q.** And the TGI (MDA-MB-435)?
**A.** 17.1 µM

**Q.** And the GI50 (SW-620 colon)?
**A.** 2.7 µM

**Q.** And the TGI (SW-620 colon)?
**A.** 15.1 µM

**Q.** What about the GI50 (OVCAR-8 ovarian) of the same molecule?
**A.** 2.23 µM

**Q.** What about the TGI (OVCAR-8 ovarian) of the same molecule?
**A.** 14.8 µM

**Q.** What about the GI50 (ACHN renal) of the same molecule?
**A.** 5.78 µM

**Q.** And the TGI (ACHN renal)?
**A.** 22.5 µM

**Q.** What about the GI50 (HOP-92 NSCLC) of the same molecule?
**A.** 15.2 µM

**Q.** What about the TGI (HOP-92 NSCLC) of the same molecule?
**A.** 38.4 µM

**Q.** And the GI50 (A549 NSCLC)?
**A.** 15.3 µM

**Q.** What about the TGI (A549 NSCLC) of the same molecule?
**A.** 55.6 µM

**Q.** What about the GI50 (HCT-116 colon) of the same molecule?
**A.** 3.72 µM

**Q.** And the TGI (HCT-116 colon)?
**A.** 15.4 µM

**Q.** And the GI50 (SN12C renal)?
**A.** 3.96 µM

**Q.** What about the TGI (SN12C renal) of the same molecule?
**A.** 17.9 µM

**Q.** What about the GI50 (CAKI-1 renal) of the same molecule?
**A.** 12.6 µM

**Q.** And the TGI (CAKI-1 renal)?
**A.** 28.2 µM

**Q.** And the GI50 (K-562 leukemia)?
**A.** 7.73 µM

**Q.** What about the TGI (K-562 leukemia) of the same molecule?
**A.** > 100 µM

**Q.** And the GI50 (MALME-3M melanoma)?
**A.** 12.5 µM

**Q.** And the TGI (MALME-3M melanoma)?
**A.** 27.7 µM

**Q.** And the GI50 (DU-145 prostate)?
**A.** 13.2 µM

**Q.** And the TGI (DU-145 prostate)?
**A.** 32.3 µM

**Q.** And the GI50 (NCI-H522 lung)?
**A.** 31.6 µM

**Q.** What about the TGI (NCI-H522 lung) of the same molecule?
**A.** > 100 µM

**Q.** And the GI50 (MCF7 breast)?
**A.** 7.95 µM

**Q.** And the TGI (MCF7 breast)?
**A.** 33.2 µM

**Q.** What about the GI50 (RPMI-8226 leukemia) of the same molecule?
**A.** 33.2 µM

**Q.** What about the TGI (RPMI-8226 leukemia) of the same molecule?
**A.** > 100 µM

**Q.** And the GI50 (SNB-19 CNS)?
**A.** 17.2 µM

**Q.** And the TGI (SNB-19 CNS)?
**A.** > 100 µM

**Q.** And the GI50 (SK-MEL-28 melanoma)?
**A.** 12.4 µM

**Q.** What about the TGI (SK-MEL-28 melanoma) of the same molecule?
**A.** 43.4 µM

**Q.** What about the GI50 (NCI-H226 lung) of the same molecule?
**A.** 16.1 µM

**Q.** And the TGI (NCI-H226 lung)?
**A.** 34.3 µM

**Q.** And the GI50 (PC-3 prostate)?
**A.** 21.5 µM

**Q.** And the TGI (PC-3 prostate)?
**A.** 50.6 µM

**Q.** What about the GI50 (SK-MEL-2 melanoma) of the same molecule?
**A.** 38.8 µM

**Q.** And the TGI (SK-MEL-2 melanoma)?
**A.** > 100 µM

**Q.** What about the GI50 (SK-OV-3 ovarian) of the same molecule?
**A.** 19.7 µM

**Q.** What about the TGI (SK-OV-3 ovarian) of the same molecule?
**A.** 56.5 µM

**Q.** What about the GI50 (786-0 renal) of the same molecule?
**A.** 2.66 µM

**Q.** What about the TGI (786-0 renal) of the same molecule?
**A.** 9.64 µM

**Q.** And the GI50 (T-47D breast)?
**A.** 13.4 µM

**Q.** What about the TGI (T-47D breast) of the same molecule?
**A.** > 100 µM

**Q.** What about the GI50 (SF-539 CNS) of the same molecule?
**A.** 1.67 µM

**Q.** What about the TGI (SF-539 CNS) of the same molecule?
**A.** 3.66 µM

**Q.** And the GI50 (UACC-257 melanoma)?
**A.** 18.3 µM

**Q.** And the TGI (UACC-257 melanoma)?
**A.** 78.7 µM

**Q.** What about the GI50 (IGROV1 ovarian) of the same molecule?
**A.** 20.6 µM

**Q.** And the TGI (IGROV1 ovarian)?
**A.** > 100 µM

**Q.** What about the GI50 (MOLT-4 leukemia) of the same molecule?
**A.** 7.57 µM

**Q.** And the TGI (MOLT-4 leukemia)?
**A.** > 100 µM

**Q.** And the GI50 (U251 CNS)?
**A.** 1.96 µM

**Q.** What about the TGI (U251 CNS) of the same molecule?
**A.** 16.8 µM

**Q.** And the GI50 (SF-268 CNS)?
**A.** 2.22 µM

**Q.** What about the TGI (SF-268 CNS) of the same molecule?
**A.** 8.61 µM

**Q.** What about the GI50 (HCC-2998 colon) of the same molecule?
**A.** 13.2 µM

**Q.** And the TGI (HCC-2998 colon)?
**A.** 45.1 µM

**Q.** And the GI50 (NCI/ADR-RES ovarian)?
**A.** 4.89 µM

**Q.** And the TGI (NCI/ADR-RES ovarian)?
**A.** 34.1 µM

**Q.** What about the GI50 (TK-10 renal) of the same molecule?
**A.** 12.6 µM

**Q.** And the TGI (TK-10 renal)?
**A.** 28.5 µM

**Q.** What about the GI50 (SK-MEL-5 melanoma) of the same molecule?
**A.** 8.89 µM

**Q.** What about the TGI (SK-MEL-5 melanoma) of the same molecule?
**A.** 24.3 µM

**Q.** And the GI50 (NCI-H460 lung)?
**A.** 6.38 µM

**Q.** And the TGI (NCI-H460 lung)?
**A.** 40.7 µM

**Q.** What about the GI50 (HCT-15 colon) of the same molecule?
**A.** 4.93 µM

**Q.** What about the TGI (HCT-15 colon) of the same molecule?
**A.** 22.1 µM

**Q.** And the GI50 (HS 578T breast)?
**A.** 10.5 µM

**Q.** And the TGI (HS 578T breast)?
**A.** 35.6 µM

**Q.** What about the GI50 (OVCAR-4 ovarian) of the same molecule?
**A.** 7.05 µM

**Q.** And the TGI (OVCAR-4 ovarian)?
**A.** 62.8 µM

**Q.** And the GI50 (HOP-62 NSCLC)?
**A.** 2.08 µM

**Q.** And the TGI (HOP-62 NSCLC)?
**A.** 4.88 µM

**Q.** What about the GI50 (A498 renal) of the same molecule?
**A.** 2.42 µM

**Q.** And the TGI (A498 renal)?
**A.** 15 µM

**Q.** What about the GI50 (NCI-H23 lung) of the same molecule?
**A.** 14 µM

**Q.** What about the TGI (NCI-H23 lung) of the same molecule?
**A.** 33.1 µM

**Q.** What about the GI50 (BT-549 breast) of the same molecule?
**A.** 18.2 µM

**Q.** What about the TGI (BT-549 breast) of the same molecule?
**A.** 40.3 µM

**Q.** And the GI50 (UO-31 renal)?
**A.** 22.8 µM

**Q.** What about the TGI (UO-31 renal) of the same molecule?
**A.** > 100 µM

**Q.** And the GI50 (HT29 colon)?
**A.** 3.67 µM

**Q.** And the TGI (HT29 colon)?
**A.** > 100 µM

**Q.** And the GI50 (MDA-MB-231 breast)?
**A.** 9.65 µM

**Q.** What about the TGI (MDA-MB-231 breast) of the same molecule?
**A.** 28.3 µM

**Q.** What about the GI50 (CCRF-CEM leukemia) of the same molecule?
**A.** > 100 µM

**Q.** And the TGI (CCRF-CEM leukemia)?
**A.** > 100 µM

**Q.** What about the GI50 (COLO 205 colon) of the same molecule?
**A.** 6.58 µM

**Q.** And the TGI (COLO 205 colon)?
**A.** 41.1 µM

**Q.** What about the GI50 (SNB-75 CNS) of the same molecule?
**A.** 12.2 µM

**Q.** What about the TGI (SNB-75 CNS) of the same molecule?
**A.** 38.4 µM

**Q.** What about the GI50 (OVCAR-5 ovarian) of the same molecule?
**A.** 13.1 µM

**Q.** What about the TGI (OVCAR-5 ovarian) of the same molecule?
**A.** 29.9 µM

**Q.** What about the GI50 (SF-295 CNS) of the same molecule?
**A.** 12.7 µM

**Q.** And the TGI (SF-295 CNS)?
**A.** 31.6 µM

Source: PubChem BioAssay (NCI)
